# According to PubChem BioAssay (NCI):
#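 48-hour exposure; five concentrations; linearly interpolated endpoints. At the TGI there is no net growth.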
# Experiments:
# Assay in all cases: NCI anticancer screen, dose series, 48 h
# [1] = test system: A498 renal
# [2] = test system: HCT-116 colon
# [3] = test system: HOP-62 NSCLC
# [4] = test system: IGROV1 ovarian
# [5] = test system: LOX IMVI melanoma
# [6] = test system: MDA-MB-435
# [7] = test system: NCI-H23 lung
# [8] = test system: SF-268 CNS
# [9] = test system: UACC-257 melanoma
# [10] = test system: UACC-62 melanoma
Compound,TGI [1] [µM],TGI [2] [µM],TGI [3] [µM],TGI [4] [µM],TGI [5] [µM],TGI [6] [µM],TGI [7] [µM],TGI [8] [µM],TGI [9] [µM],TGI [10] [µM]
O=C(CCc1cc(O)cc(O)c1)NCCc1cc(OCc2ccccc2)cc(OCc2ccccc2)c1,42.8,32.2,36.8,31.4,32,37.6,24.6,43.2,70,40.2
Cc1c2cccc-2c2cc(O)c3ccccc3c2n1-c1ccc(N(C)C)cc1,30.7,35.4,27.9,14.5,27.8,27.8,18.2,32.8,> 100,29.5
CCOC1C=CC(=O)C(CO)O1 (stereo not given),49.4,17.4,28.4,27.6,17.8,25.6,27.6,32.5,19.9,25.9
